In US10821164B2, “Peptides for inducing Chagas disease responses” (SAINT LOUIS UNIVERSITY, priority 2015, dated 2020):

Tests used:
T. cruzi = conditions: children aged six to 12 years with chronic disease; cited from earlier work
CD8^+ T cells = experiment: IFN-γ ELISPOT after vaccination of HLA-A2 transgenic mice with peptide-pulsed mature dendritic cells; format: cell-based, HLA-A2 HHDII transgenic mice; conditions: splenic CD8+ T cells four weeks after second peptide-pool pulsed mDC vaccination; stimulated overnight with spleen cells pulsed with individual peptide 5 μg/ml; FIG. 2A
Text: FIGS. 2A-C—Immunogenicity of predicted HLA-A2 restricted T. cruzi epitopes. HLA-A2 transgenic mice were vaccinated twice, two weeks apart with mature dendritic cells pulsed with functional TS (F-TS; FIG. 2A), Non-functional TS (NF-TS; FIG. 2B), or whole genome derived Non-TS peptide pools (FIG. 2C). One month later, CD8^+ T cells were isolated from control DC or peptide-pool pulsed DC vaccinated mice and stimulated overnight with APCs pulsed with individual F-TS, NF-TS, or Non-TS peptides in IFN-γ ELISPOT assays. Shown are mean±SE from representative experiments expressed as IFN-γ spot forming cells (SFC) per million CD8^+ T cells above DMSO control. Asterisks denote immunogenic peptides defined as responses greater than the mean+2 SE of all control CD8^+ T cell responses.
All animal studies were conducted in AAALAC accredited facilities and were approved by the Saint Louis University Institutional Animal Care and Use Committee. HLA-A2 HHDII transgenic mice were provided by Ted Hansen (Washington University) with permission from Marion Berard at the Institut Pasteur and were bred and housed under pathogen-free conditions throughout the inventors' studies (Pascolo et al., 1997). […]

Row | Molecule | cure rate (T. cruzi) | IFN-γ spot forming cells (SFC) per million CD8^+ T cells above DMSO control (CD8^+ T cells)
1 | O=C(Cn1ccnc1[N+](=O)[O-])NCc1ccccc1 [benznidazole] | about 60% | 
2 | EVYSLVFARL [F-TS-2] |  | 5,000 IFN-γ SFC/million CD8^+ T cells
